Laboratory results as given in patent US20240158418A1 (C4 Therapeutics, Inc., priority 2021, published 2024).
Like-named read-outs stand apart in the source and are kept apart here.

What was measured:
Assay type in all cases: cell-based
EGFR L858R-T790M-C797S = target: T1, EGFR L858R-T790M-C797S (Homo sapiens, UniProt P00533, C797S/L858R/T790M); assay: EGFR degradation, Total EGFR (L858R-specific) HTRF, NCI-H1975+CS; conditions: 6 hours
T1 construct: generated using CRISPR technology to introduce the additional C797S mutation by Horizon Discovery; host or cells: NCI-H1975+CS (CRISPR knock-in of C797S)
How it was run: (§1)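 HTRF read-outs: pY1068 phospho-EGFR for IC50; total EGFR (pan-EGFR in A431, L858R-specific in mutant lines) for DC50. Compounds were titrated 11 points, half-log, from 10 μM in duplicate onto cells in 10% FBS RPMI, incubated 6 h at 37°C.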

EGFR WT = target: T2, EGFR WT (Homo sapiens, UniProt P00533); assay: EGFR degradation, Total EGFR (pan-EGFR) HTRF, A431; conditions: A431 (wild-type), 6 hours; read-out: tEGFR DC50
T2 construct: A431 (harboring EGFR wildtype) was purchased from ATCC; host or cells: A431
Excerpt: (§2) NCI-H1975 (harboring EGFR heterozygous L858R-T790M mutations) and NCI-H3255 (harboring EGFR heterozygous L858R mutation) were purchased from ATCC and NCI, respectively. NCI-H1975+CS (harboring EGFR heterozygous L858R-T790M-C797S mutations) was generated using CRISPR technology to introduce the additional C797S mutation by Horizon Discovery. A431 (harboring EGFR wildtype) was purchased from ATCC. RPMI 1640 no-phenol red medium and fetal bovine serum (FBS) were purchased from Gibco (Grand Island, NY, USA). Cell culture flasks and 384-well microplates were acquired from VWR (Radnor, PA, USA). Phosphorylated (pY1068) EGFR and Total EGFR (using L858R-specific detection antibody and pan-EGFR antibody for EGFR mutant cell lines and EGFR wild-type cell lines, respectively) HTRF assay kits were purchased from Cisbio (Bedford, MA, USA).
(§3) Degradation of EGFR protein containing L858R mutation or wild-type was determined based on quantification of FRET signal using a Total EGFR (L858R-specific or pan-EGFR detecting) HTRF assay kit. Phospho-EGFR (pEGFR) inhibition was determined based on quantification of FRET signal using a pY1068 EGFR HTRF assay kit. In separate assay plates, test compounds were added to the 384-well plate from a top concentration of 10 μM with 11 points, half log titration in duplicates. For each assay, 12.5 uL of cells suspended in assay media (RPMI 1640 no-phenol red medium+10% FBS) at cell densities indicated for each cell line in Table 8 below were dispensed using a multi-channel pipette to 384-well low volume white HTRF microplates containing a duplicate concentration range of test compounds and DMSO controls. The plates were kept at 37° C. with 5% CO2 for 6 hours and then incubated with either phospho EGFR or Total EGFR HTRF detection antibodies according to the cell line and EGFR mutant being assayed. Cells treated in the absence of the test compound were the negative control. Positive control was set by wells containing all reagents but no cells. FRET signal was acquired on EnVision™ Multilabel Reader (PerkinElmer, Santa Clara, CA, USA). Compound concentration that achieves 50% degradation and inhibition was reported as DC50 and IC50, respectively.

pY1068 EGFR L858R = target: T3, pY1068 EGFR L858R (Homo sapiens, UniProt P00533, L858R); assay: Phospho-EGFR (pY1068) inhibition HTRF, NCI-H3255; conditions: 6 hours, read-out: pEGFR IC50
T3 construct: NCI-H3255 (harboring EGFR heterozygous L858R mutation); host or cells: NCI-H3255
Excerpt: as §2, §3

[1] = tested on: BaF3 cells expressing EGFR L858R-T790M-L718Q; assay: Ba/F3 EGFR cell viability (CellTiter-Glo), L858R-T790M-L718Q; conditions: Mus musculus, read-out: CTGlo (GI50)
Excerpt: RPMI 1640 media, cell culture flasks, and 384-well microplates were purchased from VWR (Radnor, PA, USA). Fetal bovine serum (FBS) was purchased from Life Technologies (Carlsbad, CA, USA) and CellTiter-Glo® was purchased from Promega (Madison, WI, USA). The Ba/F3 parental cell line was purchased from CrownBio (Santa Clara, CA). BaF3 cell lines ectopically expressing the EGFR mutations L858R, L858R-T790M, L858R-C797S, and L858R-T790M-C797S were purchased from CrownBio and EGFR mutations L858R-L718Q, L858R-T790M-L718Q, L858R-L792H, and L858R-T790M-L792H, were purchased from Signosis (Santa Clara, CA).
Cell viability was assessed based on the quantification of ATP using the CellTiter-Glo® assay (Promega, Madison, WI, USA). To determine the effect of compounds on cell viability, all Ba/F3 cell lines were plated at a cell density of 2000 cells/well in 384-well plates using RPMI 1640+10% FBS and treated with compounds of interest using a 10-point half-log dilution series in duplicate for 72 hours, with the highest dose set at […]. CellTiter-Glo® reagent was then added and luminescence signals were measured using an EnVision™ Multimode plate reader (Perkin Elmer, Santa Clara, CA). For data normalization, cells untreated with the test compounds at Time=72 hours were set to 100% (equivalent to maximal cell growth after 72 hours); cells untreated with the test compounds at Time=0 hours were set to 0% (equivalent to cytostasis); and media-only wells were set to −100% (equivalent to complete cytotoxicity). % Viability was determined by normalizing the signal with positive and DMSO treated negative controls on the same microtiter plate. The half-maximal inhibition of cell growth (GI50) is computed from where the fitted curve crosses 50% while the half-maximal lethal dose (LD50) is computed from where the fitted curve crosses −50%.

EGFR L858R = EGFR L858R (Homo sapiens, UniProt P00533, L858R); assay: EGFR degradation, Total EGFR (L858R-specific) HTRF, NCI-H3255; parameters: NCI-H3255 (harboring EGFR heterozygous L858R mutation); host or cells: NCI-H3255; conditions: 6 hours
How it was run: as §1

[2] = H1975 + CS (L858R-T790M-C797S), read-out: tEGFR DC50
[3] = Table 9A, NCI-H1975+CS cells, Total EGFR HTRF, read-out: H1975+ CS EGFR DC50
[4] = H3255 (L858R), read-out: tEGFR DC50
[5] = Table 9A, NCI-H3255 cells, Total EGFR HTRF, read-out: H3255 EGFR DC50

EGFR L858R, sequence (P00533 25-1210 L858R): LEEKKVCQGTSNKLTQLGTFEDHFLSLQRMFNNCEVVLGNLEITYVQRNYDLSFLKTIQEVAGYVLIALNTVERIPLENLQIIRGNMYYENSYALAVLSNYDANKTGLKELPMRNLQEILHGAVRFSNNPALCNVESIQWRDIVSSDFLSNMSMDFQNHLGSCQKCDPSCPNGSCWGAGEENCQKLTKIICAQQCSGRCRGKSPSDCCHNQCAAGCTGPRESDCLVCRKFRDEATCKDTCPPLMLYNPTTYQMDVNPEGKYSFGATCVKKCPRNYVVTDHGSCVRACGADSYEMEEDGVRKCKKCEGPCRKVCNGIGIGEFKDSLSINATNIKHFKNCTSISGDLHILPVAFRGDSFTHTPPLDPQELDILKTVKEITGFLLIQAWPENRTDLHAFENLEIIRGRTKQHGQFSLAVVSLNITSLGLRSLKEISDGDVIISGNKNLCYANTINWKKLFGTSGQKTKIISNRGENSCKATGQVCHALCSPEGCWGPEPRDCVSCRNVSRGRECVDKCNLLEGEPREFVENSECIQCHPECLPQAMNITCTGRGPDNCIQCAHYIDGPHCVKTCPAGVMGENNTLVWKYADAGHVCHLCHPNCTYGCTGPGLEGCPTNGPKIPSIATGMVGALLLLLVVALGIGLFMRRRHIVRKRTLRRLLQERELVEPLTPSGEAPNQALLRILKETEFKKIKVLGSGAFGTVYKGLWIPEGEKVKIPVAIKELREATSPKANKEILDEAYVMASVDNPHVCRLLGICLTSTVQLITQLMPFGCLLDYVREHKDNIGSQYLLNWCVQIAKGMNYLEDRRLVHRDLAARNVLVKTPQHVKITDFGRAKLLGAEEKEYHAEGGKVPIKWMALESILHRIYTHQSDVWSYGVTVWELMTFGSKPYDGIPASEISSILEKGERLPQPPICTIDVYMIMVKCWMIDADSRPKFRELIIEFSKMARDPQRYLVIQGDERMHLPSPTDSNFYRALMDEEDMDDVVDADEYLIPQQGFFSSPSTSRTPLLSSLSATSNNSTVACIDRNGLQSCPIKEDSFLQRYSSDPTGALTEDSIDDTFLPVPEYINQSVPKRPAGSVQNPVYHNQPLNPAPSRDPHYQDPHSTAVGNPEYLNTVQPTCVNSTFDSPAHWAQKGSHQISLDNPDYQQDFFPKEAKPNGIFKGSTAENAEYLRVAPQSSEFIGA
T1 sequence (P00533 25-1210 T790M/C797S/L858R): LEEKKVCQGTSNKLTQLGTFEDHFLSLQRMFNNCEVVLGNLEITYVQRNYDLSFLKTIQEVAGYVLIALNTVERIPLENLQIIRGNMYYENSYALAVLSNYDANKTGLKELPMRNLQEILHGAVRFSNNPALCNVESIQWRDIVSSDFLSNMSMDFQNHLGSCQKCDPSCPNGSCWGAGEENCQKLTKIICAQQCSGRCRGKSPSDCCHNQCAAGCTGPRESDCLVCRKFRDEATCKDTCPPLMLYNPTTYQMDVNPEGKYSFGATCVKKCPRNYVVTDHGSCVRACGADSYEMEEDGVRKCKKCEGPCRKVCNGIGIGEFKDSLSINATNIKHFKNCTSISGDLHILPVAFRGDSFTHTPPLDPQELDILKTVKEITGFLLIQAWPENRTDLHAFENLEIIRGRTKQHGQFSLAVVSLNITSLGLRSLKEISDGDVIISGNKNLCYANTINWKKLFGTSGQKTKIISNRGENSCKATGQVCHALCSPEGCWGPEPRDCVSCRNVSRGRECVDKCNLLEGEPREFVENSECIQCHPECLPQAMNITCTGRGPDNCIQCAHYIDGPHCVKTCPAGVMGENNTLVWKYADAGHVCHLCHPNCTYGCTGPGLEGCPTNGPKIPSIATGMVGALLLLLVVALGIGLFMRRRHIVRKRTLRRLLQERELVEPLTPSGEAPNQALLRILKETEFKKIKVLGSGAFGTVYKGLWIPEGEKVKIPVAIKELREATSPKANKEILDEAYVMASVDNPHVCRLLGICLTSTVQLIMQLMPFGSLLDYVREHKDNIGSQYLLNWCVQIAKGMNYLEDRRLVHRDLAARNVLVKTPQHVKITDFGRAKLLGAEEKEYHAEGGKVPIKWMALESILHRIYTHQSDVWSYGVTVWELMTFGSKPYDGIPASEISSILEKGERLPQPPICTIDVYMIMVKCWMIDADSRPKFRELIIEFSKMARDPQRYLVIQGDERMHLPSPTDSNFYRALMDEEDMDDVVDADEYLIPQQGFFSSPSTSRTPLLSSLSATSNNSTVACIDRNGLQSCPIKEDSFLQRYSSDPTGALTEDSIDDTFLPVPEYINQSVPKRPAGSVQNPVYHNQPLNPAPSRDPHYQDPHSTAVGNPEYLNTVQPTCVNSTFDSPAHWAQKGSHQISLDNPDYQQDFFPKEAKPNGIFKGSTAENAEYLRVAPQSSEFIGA
T3 sequence (P00533 25-1210 L858R): as the sequence (P00533 25-1210 L858R) above
T2 sequence (P00533 25-1210): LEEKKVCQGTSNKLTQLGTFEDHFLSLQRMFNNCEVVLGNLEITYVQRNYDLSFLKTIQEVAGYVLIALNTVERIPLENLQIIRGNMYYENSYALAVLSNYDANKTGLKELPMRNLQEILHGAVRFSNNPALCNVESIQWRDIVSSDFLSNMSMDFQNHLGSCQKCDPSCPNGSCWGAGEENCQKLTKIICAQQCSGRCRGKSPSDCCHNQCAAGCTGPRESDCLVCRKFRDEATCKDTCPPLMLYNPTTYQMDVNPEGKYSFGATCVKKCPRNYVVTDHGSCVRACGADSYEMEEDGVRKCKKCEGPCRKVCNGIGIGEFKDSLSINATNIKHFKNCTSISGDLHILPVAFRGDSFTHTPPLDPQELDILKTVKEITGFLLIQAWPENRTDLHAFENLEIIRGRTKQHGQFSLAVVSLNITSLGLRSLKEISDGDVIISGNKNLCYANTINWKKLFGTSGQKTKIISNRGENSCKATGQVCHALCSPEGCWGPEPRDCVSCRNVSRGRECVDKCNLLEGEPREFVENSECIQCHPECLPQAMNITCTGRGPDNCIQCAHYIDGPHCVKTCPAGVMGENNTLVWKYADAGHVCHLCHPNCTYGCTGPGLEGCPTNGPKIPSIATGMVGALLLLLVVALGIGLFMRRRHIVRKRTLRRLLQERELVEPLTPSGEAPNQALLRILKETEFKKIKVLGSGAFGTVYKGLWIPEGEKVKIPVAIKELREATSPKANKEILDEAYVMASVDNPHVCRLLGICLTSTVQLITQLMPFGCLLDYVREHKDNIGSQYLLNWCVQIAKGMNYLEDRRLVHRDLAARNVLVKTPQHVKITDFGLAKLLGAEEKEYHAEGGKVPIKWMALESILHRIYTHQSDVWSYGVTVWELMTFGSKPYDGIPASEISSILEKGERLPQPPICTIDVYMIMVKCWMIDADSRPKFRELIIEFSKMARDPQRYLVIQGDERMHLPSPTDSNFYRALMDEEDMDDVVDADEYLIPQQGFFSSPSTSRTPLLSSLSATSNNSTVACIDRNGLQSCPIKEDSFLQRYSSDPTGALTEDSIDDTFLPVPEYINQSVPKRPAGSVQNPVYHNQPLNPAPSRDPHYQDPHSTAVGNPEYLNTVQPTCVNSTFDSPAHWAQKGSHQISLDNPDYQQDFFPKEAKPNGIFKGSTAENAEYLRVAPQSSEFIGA

How did the DC50 (EGFR L858R-T790M-C797S; [2]) turn out when `O=C1CC[C@H](Nc2ccc(N3CCC(O)(CC(=O)N4CC5(C4)CN(c4ccc(-c6cc(F)c7c(c6)C(=O)N(C(C(=O)Nc6nccs6)c6ncn8c6CCC8)C7)cc4)C5)CC3)c(F)c2)C(=O)N1` (stereo partly drawn) [Compound 1, 2-(6,7-dihydro-5H-pyrrolo[1,2-c]imidazol-1-yl)-2-[6-[4-[2-[2-[1-[4-[[(3S)-2,6-dioxo-3-piperidyl]amino]-2-fluoro-phenyl]-4-hydroxy-4-piperidyl]acetyl]-2,6-diazaspiro[3.3]heptan-6-yl]phenyl]-4-fluoro-1-oxo-isoindolin-2-yl]-N-thiazol-2-yl-acetamide] was run?
Its DC50 is 12 nM.

And the DC50 (EGFR L858R-T790M-C797S; [3])?
The DC50 was under 50 nM.

What about the DC50 (EGFR WT) of the same molecule?
The DC50 was over 10000 nM.

What about the IC50 (pY1068 EGFR L858R) of the same molecule?
The IC50 was 5 nM.

What about the GI50 [1] of the same molecule?
Its GI50 is 44 nM.

What about the DC50 (EGFR L858R; [4]) of the same molecule?
The DC50 was 5 nM.

What about the DC50 (EGFR L858R; [5]) of the same molecule?
The DC50 was under 50 nM.

Which results are given for `Cn1nc(N2CCC(=O)NC2=O)c2ccc([C@H]3CCN(CC(=O)N4CC5(C4)CN(c4ccc(-c6cc(F)c7c(c6)C(=O)N(C(C(=O)Nc6nccs6)c6ncn8c6CCC8)C7)cc4)C5)CC3(F)F)cc21` (stereo partly drawn) [Compound 2, 2-(6,7-dihydro-5H-pyrrolo[1,2-c]imidazol-1-yl)-2-[6-[4-[2-[2-[(4R)-4-[3-(2,4-dioxohexahydropyrimidin-1-yl)-1-methyl-indazol-6-yl]-3,3-difluoro-1-piperidyl]acetyl]-2,6-diazaspiro[3.3]heptan-6-yl]phenyl]-4-fluoro-1-oxo-isoindolin-2-yl]-N-thiazol-2-yl-acetamide]?
DC50 (EGFR L858R-T790M-C797S; [2]): 19 nM; DC50 (EGFR L858R-T790M-C797S; [3]): < 50 nM; DC50 (EGFR WT): > 10000 nM; IC50 (pY1068 EGFR L858R): 8 nM; GI50 [1]: 22 nM; DC50 (EGFR L858R; [4]): 6 nM; DC50 (EGFR L858R; [5]): < 50 nM
